Results from US20120283190A1, “ENDOTHELIN INHIBITORS FOR THE TREATMENT OF RAPIDLY PROGRESSIVE GLOMERULONEPHRITIS” (Institut National De La Santé Et De La Recherche Medicale …, priority 2009, published 2012).
Where a SMILES comes first, the peptide text is derived from it. [ ]: non-standard residue; d: D form.

What was measured:
[1] = system: experimental model of RPGN; assay: anti-GBM RPGN model, continuous infusion of selective ETA or ETB antagonist by subcutaneous osmotic minipumps; type: in vivo, C57B1/6J mice; conditions: 100 nmol·kg−1·day−1 by minipump; for plasma urea concentration (index of renal failure): vehicle 34.3±6.1 mmol/L
[2] = system: murine podocyte cell line; assay: migration assay in cultured podocytes (Ibidi Culture-Insert, gap coverage); type: cell-based, mouse; conditions: coverage of 500 μm gap after 20 hours of culture; vs vehicle (RPMI with DMSO)
Description: Selected experiments (migration studies) were performed in a murine podocyte cell line (Schiwek D et al, 2004) derived from isolated from kidneys of Immorto-Mouse® mice (Charles River, St. Louis, Mo., USA), carrying a temperature-sensitive mutant of the immortalizing SV40 large T antigen under control of the interferon-gamma (INF-γ)-inducible H-2 Kb promoter. Migration assays were performed in μ-Dish 35 mm high with Culture-Insert (Ibidi). Ibidi's wounding inserts were used for cell migration or cell invasion studies. […] The inserts can be inserted into any bio-compatible surface and used to culture one or multiple cell lines. These inserts have two wells that create 2 distinct cell patches with a defined gap of 500 μm. The coverage of this gap after 20 hours of culture was assessed in the presence of the selective ETA antagonist BQ123 or the ETB antagonist BQ 788 (Calbiochem) or vehicle (RPMI with DMSO).

[3] = system: accelerated anti-GBM RPGN model; assay: accelerated anti-GBM RPGN model, bosentan mixed with food; type: in vivo, C57B1/6J mice; conditions: bosentan 50 mg/kg/d oral in food
Description: Male and female C57B1/6 mice weighing 20-25 g, 10 weeks old, purchased from Charles River France, were housed in a room with a 12 h light-dark cycle with water and food ad libido. […] The animals were sacrificed by injection of pentobarbital (100 mg/kg i.p.)
The accelerated anti-GBM RPGN model was used, as previously described in Topham P S et al, 1999 and Lloyd C M et al, 1997. Briefly, C57B1/6J male mice were given subcutaneous injections of 200 μg normal sheep IgG (100 μl into each flank of normal sheep IgG (Sigma) diluted to 1 mg/ml in a solution of 50% Freund's complete adjuvent and 50% saline). Six days later (day 1), GN was induced by intravenous injection of 50 μL sheep anti-glomerular basement membrane (GBM) serum diluted to 70 mg/ml in saline. Serum injections were repeated twice (on days 2 and 3), with the serum volume increased to 250 μL. From days 0 to 14, mice were given bosentan, an orally active endothelin antagonist (designated chemically as 4-tert-butyl-N-[6-(2-hydroxy-ethoxy)-5-(2-methoxy-phenoxy)-[2,2′]-bipyrimidin-4-yl]-benzenesulfonamide monohydrate). We manually grinded 62.5 mg film-coated tablets of […] ® (bosentan) for oral administration and mixed them with powdered food supplied to the animals at an active dose of 50 mg/kg/d for 14 days as previously described^3. […] The treated group (n=7) was compared to vehicle-treated animals (n=6). […]
Normalized albumin urinary excretion was evaluated from urine samples collected for 18 h in metabolic cages (Techniplast). Urinary creatinine and albumin were quantified spectrophotometrically using colorimetric methods (Olympus).
For light microscopy, half mouse kidneys were fixed and embedded in paraffin, and 3 μm-thick sections were cut. Histopathological changes were evaluated using Masson's trichrome coloration by an examiner who was blind to the experimental conditions. The proportion of crescentic glomeruli was determined by examination of at least 50 glomeruli per section.

## CC(C)C[C@@H]1NC(=O)[C@@H](C(C)C)NC(=O)[C@@H]2CCCN2C(=O)[C@@H](CC(=O)O)NC(=O)[C@@H](Cc2c[nH]c3ccccc23)NC1=O [BQ123] (cyclo(L[dW][dD]P[dV]))
[1]
  plasma urea concentration (index of renal failure): 17.5 ± 2.5 mmol/L

## CCCC[C@@H](NC(=O)[C@@H](Cc1cn(C(=O)OC)c2ccccc12)NC(=O)[C@H](CC(C)(C)C)NC(=O)N1[C@H](C)CCC[C@@H]1C)C(=O)O [BQ788]
[2]
  migration of cultured podocytes: prominent action
[1]; day 7 after infusion of the anti-GBM serum, versus PBS-treated animals
  Albuminuria normalized to creatininuria: prominent action
[1]
  plasma urea concentration (index of renal failure): 12.3 ± 2.1 mmol/L

## COc1ccccc1Oc1c(NS(=O)(=O)c2ccc(C(C)(C)C)cc2)nc(-c2ncccn2)nc1OCCO [bosentan, 4-tert-butyl-N-[6-(2-hydroxy-ethoxy)-5-(2-methoxy-phenoxy)-[2,2′]-bipyrimidin-4-yl]-benzenesulfonamide monohydrate]
[3]; day 5 after infusion of the anti-GBM serum, p=0.0053
  Albuminuria normalized to creatininuria, fold lower than in vehicle-treated counterparts: 5.8 fold
[3]; day 14 after infusion of the anti-GBM serum, p=0.0057
  crescentic glomeruli, fold less than in vehicle-treated counterparts: 14 fold
[3]; mice with anti-GBM serum-induced RPGN
  fibrinogen deposition in glomeruli with disappearance of podocin positive podocytes: blunted
